Data taken from patent publication US10494380B2, “Nitrogen-containing tricyclic derivatives having HIV replication inhibitory activity” (priority 2015, dated 2019).

tested on: T125A mutant virus (HIV-1 NL-432 recombinant molecular clone, IN gene); experiment: HIV replication inhibition assay against integrase 124/125 mutant virus (Test Example 2); format: cell-based; conditions: Human immunodeficiency virus 1, MT4, read-out: EC50 against T125A mutant virus, T125A mutant virus (HIV-1 NL-432 IN gene), MT-4 cells, MTT
Method: Persistently HIV (HTLV-IIIB strain) infected human T cell strain Molt-4 clone8 was cultured in RPMI-1640 medium supplemented with 10% fetal bovine serum and the supernatant was filtered, then the virus titer was measured and stored at −80° C. Polymorphic mutations in HIV-1-infected patients have been observed in amino acids 124 and 125 on the HIV-1 integrase (IN) gene. A point mutation was introduced on the amino acids 124 and/or 125 of IN gene of the HIV-1 NL-432 recombinant molecular clone to generate a mutant virus plasmid construct. These mutant virus plasmids were transfected into 293T cells, and after two days, the supernatant was filtered and then the virus titer was measured and stored at −80° C. Each anti-HIV active substance was diluted with culture medium described above to the designated concentration, which was dispensed into 96-well microtiter plate by 50 μL. Next, 100 μL of MT-4 cell suspension (2.5×10^4 cells) was dispensed into each well, then 50 μl of HIV-containing supernatant diluted with culture medium described above was added thereto (60 pfu (plaque forming unit)).
Cells were cultured at 37° C. in CO2 incubator for four days, then 30 μL of MTT (3-(4,5-dimethylthiazole-2-yl)-2,5-diphenyltetrazolyum bromide) reagent (5 mg/mL in PBS) was added to all wells followed by incubation for 1 hour. In this step, MTT was reduced to insoluble formazan in living cells. To elute generated formazan, 150 μL of the culture supernatant was removed from all wells, then 150 μL of cell lysis solution (10% Triton X-100 and 0.4% (v/v)-HCl containing isopropanol) was added thereto, followed by shaking with a plate mixer. The formazan was measured with micro plate reader at OD: 560 nm and 690 nm (reference wavelength) and the result was compared with the reference wells. EC50 means the compound concentration at which 50% of cytotoxicity caused by virus infection is inhibited.

Compound | EC50 [nM]
[2H]C1([2H])N(C(=O)OC)c2c(C)c([C@H](OC(C)(C)C)C(=O)O)c(-c3ccc(Cl)cc3)c3cc(C)n(c23)C1([2H])[2H] [Compound I-097] | 9.7
[2H]C([2H])([2H])N1c2c(C)c([C@H](OC(C)(C)C)C(=O)O)c(-c3ccc(Cl)cc3)c3cc(C)n(c23)C([2H])([2H])C1([2H])[2H] [Compound I-103] | 3.4
[2H]C([2H])([2H])N1CCn2c(C)cc3c(-c4ccc(Cl)cc4)c([C@H](OC(C)(C)C)C(=O)O)c(C)c1c32 [Compound I-104] | 4.1
[2H]C1([2H])N(C)c2c(C)c([C@H](OC(C)(C)C)C(=O)O)c(-c3ccc(F)cc3)c3cc(C)n(c23)C1([2H])[2H] [Compound I-105] | 11
[2H]C([2H])([2H])N1c2c(C)c([C@H](OC(C)(C)C)C(=O)O)c(-c3ccc(F)cc3)c3cc(C)n(c23)C([2H])([2H])C1([2H])[2H] [Compound I-106] | 11
Cc1c([C@H](OC(C)(C)C)C(=O)O)c(-c2ccc(Cl)cc2)c2cc(C)n3c2c1N(Cc1ccccc1)CC3 [Compound I-107] | 25
COCC[C@@H]1Cn2c(C)cc3c(-c4ccc(Cl)cc4)c([C@H](OC(C)(C)C)C(=O)O)c(C)c(c32)N1S(C)(=O)=O [Compound I-108] | 19
COCC[C@H]1Cn2c(C)cc3c(-c4ccc(Cl)cc4)c([C@H](OC(C)(C)C)C(=O)O)c(C)c(c32)N1C [Compound I-109] | 15
COC(=O)N1c2c(C)c([C@H](OC(C)(C)C)C(=O)O)c(-c3ccc(Cl)cc3)c3cc(C)n(c23)C[C@H]1C [Compound I-111] | 4.2
Cc1c([C@H](OC(C)(C)C)C(=O)O)c(-c2ccc(Cl)cc2)c2cc(C)n3c2c1N(CCN(C)C)[C@@H](C)C3 [Compound I-113] | 22
Cc1c([C@H](OC(C)(C)C)C(=O)O)c(-c2ccc(F)cc2)c2cc(Cl)n3c2c1N(C)CC3 [Compound I-114] | 18
[2H]C1([2H])N(C)c2c(C)c([C@H](OC(C)(C)C)C(=O)O)c(-c3ccc(Cl)cc3)c3cc(Cl)n(c23)C1([2H])[2H] [Compound I-115] | 11
Cc1c([C@H](OC(C)(C)C)C(=O)O)c(-c2ccc(Cl)cc2)c2cc(C)n3c2c1N(Cc1ncccn1)CC3 [Compound I-116] | 6.7
Cc1c([C@H](OC(C)(C)C)C(=O)O)c(-c2ccc(Cl)cc2)c2cc(C)n3c2c1N(Cc1ccccn1)CC3 [Compound I-117] | 8.6
[2H]C([2H])([2H])N1CCn2c(C)cc3c(-c4ccc(F)cc4)c([C@H](OC(C)(C)C)C(=O)O)c(C)c1c32 [Compound I-118] | 10
Cc1c([C@H](OC(C)(C)C)C(=O)O)c(-c2ccc(F)cc2)c2cc(C)n3c2c1N(c1ncccn1)CC3 [Compound I-123] | 14
Cc1c([C@H](OC(C)(C)C)C(=O)O)c(-c2ccc(Cl)cc2)c2cc(C)n3c2c1N(c1ccccn1)CC3 [Compound I-125] | 8.2
Cc1c([C@H](OC(C)(C)C)C(=O)O)c(-c2ccc(Cl)cc2)c2cc(C)n3c2c1N(C)CC3(C)C [Compound I-127] | 16

Compound | EC50 [nM]
Cc1c([C@H](OC(C)(C)C)C(=O)O)c(-c2ccc(Cl)cc2)c2cc(C)n3c2c1N1C(=O)OCC[C@H]1C3 [Compound I-129] | 89
Cc1ccc(-c2c([C@H](OC(C)(C)C)C(=O)O)c(C)c3c4c2cc(C)n4CCN3CCN2CCOCC2)cc1 [Compound I-131] | 15
COC(=O)N1CCn2c(C)cc3c(-c4ccc(F)cc4)c([C@H](OC(C)(C)C)C(=O)O)c(C)c1c32 [Compound I-132] | 28
Cc1c([C@H](OC(C)(C)C)C(=O)O)c(-c2ccc(Cl)cc2)c2cc(C)n3c2c1N(Cc1ccncc1)CC3 [Compound I-135] | 8.2
Cc1c([C@H](OC(C)(C)C)C(=O)O)c(-c2ccc(Cl)cc2)c2cc(C)n3c2c1N(Cc1cccnc1)CC3 [Compound I-136] | 8.4
Cc1c([C@H](OC(C)(C)C)C(=O)O)c(-c2ccc(Cl)cc2)c2cc(C)n3c2c1N(S(=O)(=O)c1cccnc1)CC3 [Compound I-139] | 6.8
CC(=O)N(C)CCN1CCn2c(C)cc3c(-c4ccc(C)cc4)c([C@H](OC(C)(C)C)C(=O)O)c(C)c1c32 [Compound I-141] | 41
Cc1c([C@H](OC(C)(C)C)C(=O)O)c(-c2ccc(Cl)cc2)c2cc(C)n3c2c1N1C(=O)OC[C@@H]1C3 [Compound I-146] | 16
Cc1csc(N2CCn3c(C)cc4c(-c5ccc(Cl)cc5)c([C@H](OC(C)(C)C)C(=O)O)c(C)c2c43)n1 [Compound I-147] | 16
Cc1ccc(-c2c([C@H](OC(C)(C)C)C(=O)O)c(C)c3c4c2cc(C)n4C[C@@H](C)N3CCN(C)C)cc1 [Compound I-148] | 22
Cc1c([C@H](OC(C)(C)C)C(=O)O)c(-c2ccc(Cl)cc2)c2cc(C)n3c2c1N(C1CCOCC1)CC3 [Compound I-149] | 15
Cc1coc(N2CCn3c(C)cc4c(-c5ccc(Cl)cc5)c([C@H](OC(C)(C)C)C(=O)O)c(C)c2c43)n1 [Compound I-150] | 15
Cc1c([C@H](OC(C)(C)C)C(=O)O)c(-c2ccc(Cl)cc2)c2cc(C)n3c2c1N(Cc1cncnc1)CC3 [Compound I-153] | 11
Cc1c([C@H](OC(C)(C)C)C(=O)O)c(-c2ccc(Cl)cc2)c2cc(C)n3c2c1N(c1ccc(F)cn1)CC3 [Compound I-154] | 13
Cc1c([C@H](OC(C)(C)C)C(=O)O)c(-c2ccc(Cl)cc2)c2cc(C)n3c2c1N(c1ccncc1)CC3 [Compound I-155] | 58
Cc1ccc(-c2c([C@H](OC(C)(C)C)C(=O)O)c(C)c3c4c2cc(C)n4C[C@@H](C)N3CCN2CCOCC2)cc1 [Compound I-158] | 4.6
Cc1c(-c2c([C@H](OC(C)(C)C)C(=O)O)c(C)c3c4c2cc(C)n4CCN3C)ccc2c1NCCO2 [Compound I-160] | 70

same assay, conditions: T125A mutant virus (HIV-1 NL-432 IN gene), MT-4 cells, MTT; read-out: EC50 against T125A mutant virus

Compound | EC50 [nM]
Cc1ccc(-c2c([C@H](OC(C)(C)C)C(=O)O)c(C)c3c4c2cc(C)n4CCN3c2ncc(N(C)S(C)(=O)=O)cn2)cc1 [Compound I-201] | 14
CC(=O)Nc1cnc(N2CCn3c(C)cc4c(-c5ccc(C)cc5)c([C@H](OC(C)(C)C)C(=O)O)c(C)c2c43)nc1 [Compound I-202] | 56
Cc1c([C@H](OC(C)(C)C)C(=O)O)c(-c2ccc(Cl)cc2)c2cc(C)n3c2c1N(c1ncc(OC(F)F)cn1)CC3 [Compound I-214] | 4
COc1cnc(N2CCn3c(C)cc4c(-c5ccc(Cl)cc5)c([C@H](OC(C)C)C(=O)O)c(C)c2c43)nc1 [Compound I-215] | 47

same assay, conditions: read-out: EC50 against T125A mutant virus; T125A mutant virus (HIV-1 NL-432 IN gene), MT-4 cells, MTT

Compound | EC50 [nM]
COC(=O)N1CC(C)n2c(C)cc3c(-c4ccc(Cl)cc4)c([C@H](OC(C)(C)C)C(=O)O)c(C)c1c32 (stereo partly drawn) [Compound I-119] | 2.8
COC(=O)N1CC(C)n2c(C)cc3c(-c4ccc(Cl)cc4)c([C@H](OC(C)(C)C)C(=O)O)c(C)c1c32 (stereo partly drawn) [Compound I-120] | 52
Cc1c([C@H](OC(C)(C)C)C(=O)O)c(-c2ccc(F)cc2)c2cc(C)n3c2c1N(C)CC3C (stereo partly drawn) [Compound I-133] | 96
Cc1c([C@H](OC(C)(C)C)C(=O)O)c(-c2ccc(F)cc2)c2cc(C)n3c2c1N(C)CC3C (stereo partly drawn) [Compound I-134] | 8.4
Cc1c([C@H](OC(C)(C)C)C(=O)O)c(-c2ccc(Cl)cc2)c2cc(C)n3c2c1N(C)C1COCC13 (stereo partly drawn) [Compound I-137] | 86
Cc1ccc(-c2c([C@H](OC(C)(C)C)C(=O)O)c(C)c3c4c2cc(C)n4C(C)CN3CCN(C)C)cc1 (stereo partly drawn) [Compound I-163] | 38
